The assay deals with STAT6 (Homo sapiens (Human), UniProt P42226). Briefly: STAT6 degrader assay (HiBiT, HeLa LgBiT clone 4.14). Type of assay: cell-based. The conditions noted are these: HeLa LgBiT clone 4.14, 4-24 h; for DC50: geometric mean, given for compounds with >80% Emax, read-out: STAT6 degradation DC50; for Emax: read-out: STAT6 degradation Emax (%). The protocol: This was a HiBit based assay. A HeLa cell line stably transfected with a small protein, LgBit (Large Bit) was obtained from Promega. These cells express endogenous STAT6. A small 11 amino acid gene sequence (HiBiT) was inserted in the STAT6 gene using CRISPR technology. Once STAT6 protein is expressed in the cells, the HiBiT sequence will bind the LgBit in the cells resulting in a functional NanoBiT protein, giving a luminescent tag to STAT6, see FIG. 2.
Chain of STAT6 (P42226 whole entry): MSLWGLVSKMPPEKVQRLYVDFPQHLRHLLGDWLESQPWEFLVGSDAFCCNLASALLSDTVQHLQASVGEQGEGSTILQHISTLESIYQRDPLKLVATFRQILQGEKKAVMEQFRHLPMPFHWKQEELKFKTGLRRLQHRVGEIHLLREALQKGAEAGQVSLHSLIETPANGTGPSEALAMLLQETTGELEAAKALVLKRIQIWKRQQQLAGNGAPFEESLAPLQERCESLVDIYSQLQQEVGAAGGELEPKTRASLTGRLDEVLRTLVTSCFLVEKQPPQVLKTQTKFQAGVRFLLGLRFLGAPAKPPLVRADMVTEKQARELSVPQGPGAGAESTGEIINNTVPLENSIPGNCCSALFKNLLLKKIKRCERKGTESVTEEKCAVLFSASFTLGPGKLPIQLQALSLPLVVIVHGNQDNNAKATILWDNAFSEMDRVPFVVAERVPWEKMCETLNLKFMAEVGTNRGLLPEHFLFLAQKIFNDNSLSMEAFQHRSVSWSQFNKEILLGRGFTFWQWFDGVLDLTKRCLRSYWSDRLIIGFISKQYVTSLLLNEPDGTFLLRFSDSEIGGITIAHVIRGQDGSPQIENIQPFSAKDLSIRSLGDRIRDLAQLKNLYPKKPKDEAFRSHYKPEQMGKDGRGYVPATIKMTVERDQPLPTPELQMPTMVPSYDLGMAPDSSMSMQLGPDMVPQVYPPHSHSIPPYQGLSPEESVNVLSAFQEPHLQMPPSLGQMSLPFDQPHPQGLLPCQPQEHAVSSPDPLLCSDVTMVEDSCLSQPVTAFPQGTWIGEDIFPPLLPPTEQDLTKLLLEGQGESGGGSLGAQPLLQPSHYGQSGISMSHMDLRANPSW
Single cell clones were prepared and the clone 4.14 was selected for the assay based on that clone showing high luminescence, high STAT6 phosphorylation upon stimulation with IL-4, and inhibition of luminescence when cells were treated with STAT6 siRNA.
HeLa LgBiT clone 4.14 cells were suspended in DMEM with 10% FCS, 1% Pen/Strep, Na-pyrovate and Hygromycin B, at a concentration of 1.25*105 cells pr mL. 5000 cells were added pr well of a 384 well plate and 20 nL of compound was added by Echo® liquid handler. NN6394A (terfenadine, a toxic compound) was added to control wells at 50 μM concentration to establish the assay window. In these wells the cells are dead which equals 100% degradation of STAT6.
After 4-24 h of incubation at 37° C. under 5% CO2/95% air, 5 μL substrate (Nano-GLO®) was added to the wells and the plates were centrifuged and incubated for 0.5 h.
The luminescence in the wells as a measure of non-degraded STAT6 was measured in a plate reader (BMG Pherastar FSX). The measured DC50 (in nM) was determined.
The dose-response curves Examples 3p1, 3e50, 3e17, and 3e51 are shown below (where percent degradation is plotted vs. test compound concentration in M on a log-scale).

The record followed here is patent publication US20250325677A1, “STAT6 DEGRADERS” (Gilead Sciences, Inc., priority 2024, published 2025).

As a reminder, the DC50 is the concentration giving 50% degradation. In general, Emax refers to the greatest response seen or fitted, relative to the assay's reference.

As to `COCc1nc2cc(-c3ccnc4c3cc(CN3CCC(c5ccc(C(=O)N6CCC(CN7CCN(Cc8ccc9c(c8)oc(=O)n9C8CCC(=O)NC8=O)CC7)CC6)cc5)CC3)n4C)ccc2[nH]1` (stereo not shown) [Example 3n2, 3-(6-((4-((1-(4-(1-((4-(2-(methoxymethyl)-1H-benzo[d]imidazol-5-yl)-1-methyl-1H-pyrrolo[2,3-b]pyridin-2-yl)methyl)piperidin-4-yl)benzoyl)piperidin-4-yl)methyl)piperazin-1-yl)methyl)-2-oxobenzo[d]-oxazol-3 (2H)-yl)piperidine-2,6-dione], the DC50 came out at 1.1 nM.

`C[C@@H](c1cc2c(-c3ccc(N)nc3)ccnc2n1C)N1CCC(c2ccc(C(=O)N3CCC(CN4CCN(Cc5ccc6c(c5)n(C5CC5)c(=O)n6C5CCC(=O)NC5=O)CC4)CC3)cc2)CC1` (stereo partly drawn) [Example 3e10, 3-(5-((4-((1-(4-(1-((S)-1-(4-(6-aminopyridin-3-yl)-1-methyl-1H-pyrrolo[2,3-b]pyridin-2-yl)ethyl)piperidin-4-yl)benzoyl)piperidin-4-yl)methyl)piperazin-1-yl)methyl)-3-cyclopropyl-2-oxo-2,3-dihydro-1H-benzo[d]imidazol-1-yl)piperidine-2,6-dione]: the Emax is less than 20%.

With `Cn1c(CN2CCC(c3ccc(C(=O)N4CCC(CCn5cc(-c6ccc7c(c6)n(C)c(=O)n7C6CCC(=O)NC6=O)cn5)CC4)cc3)CC2)cc2c(-c3ccc4[nH]ncc4c3)ccnc21` (stereo not shown) [Example 3l4, 3-(5-(1-(2-(1-(4-(1-((4-(1H-indazol-5-yl)-1-methyl-1H-pyrrolo[2,3-b]pyridin-2-yl)methyl)-piperidin-4-yl)benzoyl)piperidin-4-yl)ethyl)-1H-pyrazol-4-yl)-3-methyl-2-oxo-2,3-dihydro-1H-benzo[d]imidazol-1-yl)piperidine-2,6-dione], the half-maximal degradation concentration (DC50) was found to be 2.6 nM.

`Cn1c(CN2CCC(c3ccc(C(=O)N4CCC(CN5CCN(Cc6ccc7c(c6)n(C6CC6)c(=O)n7C6CCC(=O)NC6=O)CC5)CC4)cc3)CC2)cc2c(-c3ccc4[nH]ncc4c3)ccnc21` (stereo not shown) [Example 3e6, 3-(5-((4-((1-(4-(1-((4-(1H-indazol-5-yl)-1-methyl-1H-pyrrolo[2,3-b]pyridin-2-yl)methyl)piperidin-4-yl)benzoyl)piperidin-4-yl)methyl)piperazin-1-yl)methyl)-3-cyclopropyl-2-oxo-2,3-dihydro-1H-benzo[d]imidazol-1-yl)piperidine-2,6-dione]: the DC50 came to 1.4 nM.

On to `CNc1ccc(-c2ccnc3c2cc([C@H](C)N2CC=C(c4c(C)cc(C(=O)N5CCC(CN6CCN(c7ccc8c(c7)C7(CC7)C(=O)N8C7CCC(=O)NC7=O)C[C@@H]6C)CC5)cc4F)CC2)n3C)cn1` (stereo partly drawn) [Example 3h19, 3-(5′-((S)-4-((1-(3-fluoro-5-methyl-4-(1-((S)-1-(1-methyl-4-(6-(methylamino)pyridin-3-yl)-1H-pyrrolo[2,3-b]pyridin-2-yl)ethyl)-1,2,3,6-tetrahydropyridin-4-yl)benzoyl)piperidin-4-yl)methyl)-3-methylpiperazin-1-yl)-2′-oxospiro[cyclopropane-1,3′-indolin]-1′-yl)piperidine-2,6-dione], for which the Emax is 40 to 50%.

With `Cn1c(CN2CCC(c3ccc(C(=O)N4CCC(CN5CCC(c6ccc7c(c6)n(C)c(=O)n7C6CCC(=O)NC6=O)CC5)CC4)cc3)CC2)cc2c(-c3ccc4[nH]ncc4c3)ccnc21` (stereo not shown) [Example 3d1, 3-(5-(1-((1-(4-(1-((4-(1H-indazol-5-yl)-1-methyl-1H-pyrrolo[2,3-b]pyridin-2-yl)methyl)piperidin-4-yl)benzoyl)piperidin-4-yl)methyl)piperidin-4-yl)-3-methyl-2-oxo-2,3-dihydro-1H-benzo[d]imidazol-1-yl)piperidine-2,6-dione], the maximal response (Emax) lay in the range of 50 to 60%.

`CNc1ccc(-c2ccnc3c2cc([C@H](C)N2CCC(c4ccc(C(=O)N5CCC(CN6CCN(Cc7cc8c(cc7F)n(C7CCC(=O)NC7=O)c(=O)n8C)C[C@@H]6C)CC5)cc4)CC2)n3C)cn1` (stereo partly drawn) [Example 3h21, 3-(6-fluoro-3-methyl-5-(((S)-3-methyl-4-((1-(4-(1-((S)-1-(1-methyl-4-(6-(methylamino)pyridin-3-yl)-1H-pyrrolo[2,3-b]pyridin-2-yl)ethyl)piperidin-4-yl)benzoyl)piperidin-4-yl)methyl)piperazin-1-yl)methyl)-2-oxo-2,3-dihydro-1H-benzo[d]imidazol-1-yl)piperidine-2,6-dione]: the 50% degradation concentration (DC50) worked out at 1 nM.

As to `Cn1c(CN2CCC(c3ccc(C(=O)N4CCC(OCC#Cc5cccc6c5n(C)c(=O)n6C5CCC(=O)NC5=O)CC4)cc3)CC2)cc2c(-c3ccc4[nH]ncc4c3)ccnc21` (stereo not shown) [Example 3a1, 3-(4-(3-((1-(4-(1-((4-(1H-indazol-5-yl)-1-methyl-1H-pyrrolo[2,3-b]pyridin-2-yl)methyl)piperidin-4-yl)benzoyl)piperidin-4-yl)oxy)prop-1-yn-1-yl)-3-methyl-2-oxo-2,3-dihydro-1H-benzo[d]imidazol-1-yl)piperidine-2,6-dione], the DC50 turned out to be 4.9 nM.

As for `[2H]C([2H])([2H])n1c(=O)n(C2CCC(=O)NC2=O)c2ccc(CN3CCN(CC4CCN(C(=O)c5ccc(C6CCN([C@@H](C)c7cc8c(-c9ccc(N)nc9)ccnc8n7C)CC6)cc5)CC4)CC3)cc21` (stereo partly drawn) [Example 3e26, 3-(5-((4-((1-(4-(1-((S)-1-(4-(6-aminopyridin-3-yl)-1-methyl-1H-pyrrolo[2,3-b]pyridin-2-yl)ethyl)piperidin-4-yl)benzoyl)piperidin-4-yl)methyl)piperazin-1-yl)methyl)-3-(methyl-d3)-2-oxo-2,3-dihydro-1H-benzo[d]imidazol-1-yl)piperidine-2,6-dione], the DC50 came out at 1.1 nM.

In the case of `CNc1ccc(-c2ccnc3c2cc([C@H](C)N2CCC(c4ccc(C(=O)N5CCC(CN6CCN(Cc7ccc8c(c7)n(C)c(=O)n8[C@@H]7CCC(=O)NC7=O)C[C@@H]6C)CC5)cc4)CC2)n3C)cn1` (single isomer, unassigned) [Example 3h3], the half-maximal degradation concentration (DC50) was found to be 1.1 nM.

For `Cc1cc(C(=O)N2CCC(CN3CCN(Cc4ccc5c(c4)n(C4CC4)c(=O)n5[C@@H]4CCC(=O)NC4=O)C[C@@H]3C)CC2)cc(F)c1C1=CCN([C@@H](C)c2cc3c(-c4ccc(N)nc4)ccnc3n2C)CC1` (single isomer, unassigned) [Example 3h17], the 50% degradation concentration (DC50) came to 0.8 nM.

Regarding `Cn1c(CN2CCC(c3ccc(C(=O)N4CCC(N5CCN(Cc6cccc7c6n(C)c(=O)n7C6CCC(=O)NC6=O)CC5)CC4)cc3)CC2)cc2c(-c3ccc4[nH]ncc4c3)ccnc21` (stereo not shown) [Example 3j2, 3-(4-((4-(1-(4-(1-((4-(1H-indazol-5-yl)-1-methyl-1H-pyrrolo[2,3-b]pyridin-2-yl)methyl)piperidin-4-yl)benzoyl)piperidin-4-yl)piperazin-1-yl)methyl)-3-methyl-2-oxo-2,3-dihydro-1H-benzo[d]imidazol-1-yl)piperidine-2,6-dione], the Emax was less than 20%.

On to `COCc1nc2cc(-c3ccnc4c3cc([C@H](C)N3CCC(c5ccc(C(=O)N6CCC(CN7CCN(Cc8ccc9c(c8)n(C)c(=O)n9C8CCC(=O)NC8=O)CC7)CC6)cc5)CC3)n4C)ccc2[nH]1` (stereo partly drawn) [Example 3e66, 3-(5-((4-((1-(4-(1-((S)-1-(4-(2-(methoxymethyl)-1H-benzo[d]imidazol-5-yl)-1-methyl-1H-pyrrolo[2,3-b]pyridin-2-yl)ethyl)piperidin-4-yl)benzoyl)piperidin-4-yl)methyl)piperazin-1-yl)methyl)-3-methyl-2-oxo-2,3-dihydro-1H-benzo[d]imidazol-1-yl)piperidine-2,6-dione], for which the 50% degradation concentration (DC50) was 0.5 nM.

With `C[C@@H](c1cc2c(-c3ccc4[nH]ncc4c3)ccnc2n1C)N1CCC(c2ccc(C(=O)N3CCC(CN4CCN(Cc5ccc6c(c5)n(C5CC5)c(=O)n6C5CCC(=O)NC5=O)CC4)CC3)cc2)CC1` (stereo partly drawn) [Example 3e11, 3-(5-((4-((1-(4-(1-((S)-1-(4-(1H-indazol-5-yl)-1-methyl-1H-pyrrolo[2,3-b]pyridin-2-yl)ethyl)piperidin-4-yl)benzoyl)piperidin-4-yl)methyl)piperazin-1-yl)methyl)-3-cyclo-propyl-2-oxo-2,3-dihydro-1H-benzo[d]imidazol-1-yl)piperidine-2,6-dione], the DC50 came to 0.9 nM.

For the compound `Cc1cc(C(=O)N2CCC(CN3CCN(Cc4ccc5c(c4)n(C4CC4)c(=O)n5[C@H]4CCC(=O)NC4=O)C[C@@H]3C)CC2)cc(F)c1C1=CCN([C@@H](C)c2cc3c(-c4ccc(N)nc4)ccnc3n2C)CC1` (single isomer, unassigned) [Example 3h16], the DC50 stood at 1.6 nM.

Consider `Cn1c(CN2CCC(c3ccc(C(=O)N4CCC(CN5CCN(c6ccc7c(c6)n(C)c(=O)n7C6CCC(=O)NC6=O)CC5)CC4)cc3)CC2)cc2c(-c3ccc4[nH]ncc4c3)ccnc21` (stereo not shown) [Example 3m2, 3-(5-(4-((1-(4-(1-((4-(1H-indazol-5-yl)-1-methyl-1H-pyrrolo[2,3-b]pyridin-2-yl)methyl)-piperidin-4-yl)benzoyl)piperidin-4-yl)methyl)piperazin-1-yl)-3-methyl-2-oxo-2,3-dihydro-1H-benzo[d]imidazol-1-yl)piperidine-2,6-dione], for which the 50% degradation concentration (DC50) was determined as 1.8 nM.
